Laboratory results taken from PubChem BioAssay AID248 (DTP/NCI, 2004).
“And” between values parts separate entries of the source, which are not always exact repeats. Identical values can stand only once. Inconclusive results and toxic doses are left out. No stated cut-off is given here; in the data, active means T/C of 150% or more; inactive means T/C below 125%.

Test system: L1210 leukemia ip in BDF1 mice, survival T/C
Experiment: NCI In Vivo Anticancer Drug Screen. Data for tumor model L1210 Leukemia (intraperitoneal) in B6D2F1 (BDF1) mice
Conditions: endpoint: mean survival time, higher = longer survival
How it was run: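 Transplantable tumor model; survival measured in treated vs vehicle control mice. Value = treated/control.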

[1] = dose: 100.0 mg/kg/injection, schedule: Q04DX003 (ip), vehicle: Klucel (hydroxypropylcellulose) (HPC)
[2] = dose: 200.0 mg/kg/injection, schedule: Q04DX003 (ip), vehicle: Klucel (hydroxypropylcellulose) (HPC)
[3] = dose: 400.0 mg/kg/injection, schedule: Q04DX003 (ip), vehicle: Klucel (hydroxypropylcellulose) (HPC)
[4] = dose: 100.0 mg/kg/injection, schedule: Q01DX009 (ip), vehicle: saline with Tween-80
[5] = dose: 200.0 mg/kg/injection, schedule: Q01DX009 (ip), vehicle: saline with Tween-80
[6] = dose: 400.0 mg/kg/injection, schedule: Q01DX009 (ip), vehicle: saline with Tween-80

Measured: T/C

COC(=O)c1ccccc1NC(=O)Nc1cc(OC)ccc1OC
inactive: dose: 100.0 mg/kg/injection, schedule: Q01DX009 (ip), vehicle: Klucel (hydroxypropylcellulose) (HPC) 98 % of control | dose: 200.0 mg/kg/injection, schedule: Q01DX009 (ip), vehicle: Klucel (hydroxypropylcellulose) (HPC) 102 % of control | dose: 400.0 mg/kg/injection, schedule: Q01DX009 (ip), vehicle: Klucel (hydroxypropylcellulose) (HPC) 93 % of control

O=S(=O)(O)c1cccc2c(S(=O)(=O)O)cccc12
inactive: [1] 107 % of control | [2] 100 % of control | [3] 97 % of control

C/C=C/C=N/Nc1ccccc1
inactive: dose: 50.0 mg/kg/injection, schedule: Q04DX003 (ip), vehicle: other 87 % of control | dose: 100.0 mg/kg/injection, schedule: Q01DX001 (ip), vehicle: other 97 % of control | dose: 100.0 mg/kg/injection, schedule: Q04DX003 (ip), vehicle: other 92 % of control | dose: 200.0 mg/kg/injection, schedule: Q01DX001 (ip), vehicle: other 90 % of control | dose: 200.0 mg/kg/injection, schedule: Q04DX003 (ip), vehicle: other 93 % of control

BrC(Br)(c1ccccc1)C1OCCO1
inactive: dose: 50.0 mg/kg/injection, schedule: Q01DX009 (ip), vehicle: saline with Tween-80 100 % of control | [4] 106 % of control | [5] 93 % of control

N#CCOc1ccc(Cl)cc1
inactive: dose: 6.25 mg/kg/injection, schedule: Q01DX009 (ip), vehicle: Klucel (hydroxypropylcellulose) (HPC) 96 % of control | dose: 12.5 mg/kg/injection, schedule: Q01DX009 (ip), vehicle: Klucel (hydroxypropylcellulose) (HPC) 97 % of control | dose: 25.0 mg/kg/injection, schedule: Q01DX009 (ip), vehicle: Klucel (hydroxypropylcellulose) (HPC) 95 % of control and 108 % of control | dose: 100.0 mg/kg/injection, schedule: Q04DX002 (ip), vehicle: Klucel (hydroxypropylcellulose) (HPC) 87 % of control

COc1ccc(N=Cc2c(O)ccc3ccccc23)cc1
inactive: [1] 107 % of control | [2] 98 % of control | [3] 102 % of control

O=c1cc(N=Nc2ccc(O)cc2)[nH]c(=O)[nH]1
inactive: dose: 100.0 mg/kg/injection, schedule: Q01DX009 (ip), vehicle: water 94 % of control | dose: 100.0 mg/kg/injection, schedule: Q04DX003 (ip), vehicle: water 103 % of control | dose: 200.0 mg/kg/injection, schedule: Q01DX009 (ip), vehicle: water 94 % of control | dose: 200.0 mg/kg/injection, schedule: Q04DX003 (ip), vehicle: water 103 % of control | dose: 400.0 mg/kg/injection, schedule: Q01DX009 (ip), vehicle: water 92 % of control | dose: 400.0 mg/kg/injection, schedule: Q04DX003 (ip), vehicle: water 104 % of control

COc1ccc(OC)c(NC(=O)Nc2cc(C)ccc2OC)c1
inactive: [1] 95 % of control | [2] 92 % of control | [3] 97 % of control

Cc1ccc(S(=O)(=O)OC2COCOC2)cc1
inactive: [4] 110 % of control | [5] 102 % of control | [6] 91 % of control

[O-]/[N+](=C\c1cccc(Cl)c1)c1ccccc1
inactive: dose: 50.0 mg/kg/injection, schedule: Q01DX001 (ip), vehicle: saline 102 % of control | dose: 100.0 mg/kg/injection, schedule: Q01DX001 (ip), vehicle: saline 100 % of control | [1] 107 % of control | dose: 200.0 mg/kg/injection, schedule: Q01DX001 (ip), vehicle: saline 100 % of control | [2] 100 % of control | dose: 400.0 mg/kg/injection, schedule: Q01DX001 (ip), vehicle: saline 112 % of control

CCOC(=O)C(=Cc1c[nH]c2ccccc12)C(=O)OCC
inactive: [4] 108 % of control | dose: 100.0 mg/kg/injection, schedule: Q04DX003 (ip), vehicle: saline with Tween-80 96 % of control | [5] 90 % of control | dose: 200.0 mg/kg/injection, schedule: Q04DX003 (ip), vehicle: saline with Tween-80 96 % of control | [6] 92 % of control | dose: 400.0 mg/kg/injection, schedule: Q04DX003 (ip), vehicle: saline with Tween-80 96 % of control

CC1(C(=O)O)CC12c1ccccc1-c1ccccc12 (configuration not stated)
inactive: dose: 100.0 mg/kg/injection, schedule: Q01DX001 (ip), vehicle: acetone 103 % of control | dose: 200.0 mg/kg/injection, schedule: Q01DX001 (ip), vehicle: acetone 92 % of control
